Values quoted from earlier work as cited in patent US20240189234A1, “SILICON PARTICLES FOR DRUG DELIVERY” (NACAMED AS, priority 2021, published 2024).

Conditions: calculated log P values from Foye's Principles of Medicinal Chemistry

| Molecule | log P |
| --- | --- |
| COc1ccc([C@@H]2Sc3ccccc3N(CCN(C)C)C(=O)[C@@H]2OC(C)=O)cc1 [diltiazem] | 4.73 |
| CC(COc1ccccc1)N(CCCl)Cc1ccccc1 (stereo not shown) [phenoxybenzamine] | 3.69 |
| O=C(Nc1ccccc1)OCC(CN1CCCCC1)OC(=O)Nc1ccccc1 (stereo not shown) [diperodon] | 4.65 |
| O=C(O)c1cc(/N=N/c2ccc(S(=O)(=O)Nc3ccccn3)cc2)ccc1O [sulfasalazine] | 3.05 |
| CN(C)CCC=C1c2ccccc2C=Cc2ccccc21 [cyclobenzaprine] | 6.19 |
| CCN[C@@H](C)Cc1cccc(C(F)(F)F)c1 [dextrofenfluramine] | 3.55 |
| CCC(=O)C(CC(C)N1CCCCC1)(c1ccccc1)c1ccccc1 (stereo not shown) [dipipanone] | 5.10 |
| CC[C@]1(O)C[C@@H]2CN(CCc3c([nH]c4ccccc34)[C@@](C(=O)OC)(c3cc4c(cc3OC)N(C)[C@H]3[C@@](O)(C(N)=O)[C@H](O)[C@]5(CC)C=CCN6CC[C@]43[C@@H]65)C2)C1 [vindesine] | 4.94 |
| CN1C[C@H](C(=O)N[C@]2(C)O[C@@]3(O)[C@@H]4CCCN4C(=O)[C@H](Cc4ccccc4)N3C2=O)C=C2c3cccc4[nH]cc(c34)C[C@H]21 [ergotamine] | 7.37 |
| Clc1ccc(COC(Cn2ccnc2)c2ccc(Cl)cc2Cl)c(Cl)c1 (stereo not shown) [miconazole] | 4.97 |
| CN1CCC(OC(c2ccccc2)c2ccccc2)CC1 [diphenylpyraline] | 3.43 |
| CC(C)(C)NC(=O)[C@H]1CC[C@H]2[C@@H]3CC[C@H]4NC(=O)C=C[C@]4(C)[C@H]3CC[C@]12C [finasteride] | 3.83 |
| CC(CN(C)C)CN1c2ccccc2CCc2ccccc21 (stereo not shown) [trimipramine] | 4.71 |
| C=CCN1CC[C@]23CCCC[C@H]2[C@H]1Cc1ccc(O)cc13 [levallorphan] | 3.85 |
| C1CCC(C(CC2CCCCN2)C2CCCCC2)CC1 (stereo not shown) [perhexilene] | 6.46 |
| CO[C@@H]1[C@@H](OC(N)=O)[C@@H](O)[C@H](Oc2ccc3c(O)c(NC(=O)c4ccc(O)c(CC=C(C)C)c4)c(=O)oc3c2C)OC1(C)C [novobiocin] | 3.74 |
| CN(C)C/C=C(/c1ccc(Br)cc1)c1cccnc1 [zimeldine] | 3.07 |
| CO[C@H]1C[C@H](O[C@H]2[C@H](C)[C@@H](O[C@@H]3O[C@H](C)C[C@H](N(C)C)[C@H]3OC(C)=O)[C@@H](C)C[C@@]3(CO3)C(=O)[C@H](C)[C@@H](OC(C)=O)[C@@H](C)[C@@H](C)OC(=O)[C@@H]2C)O[C@@H](C)[C@@H]1OC(C)=O [troleandomycin] | 3.46 |
| CCCN1C[C@H](CSC)C[C@@H]2c3cccc4[nH]cc(c34)C[C@H]21 [pergolide] | 3.90 |

| Molecule | log P |
| --- | --- |
| CN1CC[C@]23CCCC[C@H]2[C@H]1Cc1ccc(O)cc13 [leverphanol] | 3.26 |
| OC(CNCC(O)C1CCc2cc(F)ccc2O1)C1CCc2cc(F)ccc2O1 (stereo not shown) [nebivolol] | 4.08 |
| CCNC(C)Cc1cccc(C(F)(F)F)c1 (stereo not shown) [fenfluramine] | 3.55 |
| CC(C)C(=O)Nc1ccc([N+](=O)[O-])c(C(F)(F)F)c1 [flutamide] | 3.52 |
| CN(C)CCCN1c2ccccc2Sc2ccc(C(F)(F)F)cc21 [triflupromazine] | 5.16 |
| CCCN(CC)C(CC)C(=O)Nc1c(C)cccc1C (stereo not shown) [etidocaine] | 3.57 |
| CCCCOc1cc(C(=O)NCCN(CC)CC)c2ccccc2n1 [dibucaine] | 4.40 |
| CN(C)CCC=C1c2ccccc2CCc2ccccc21 [amitriptyline] | 4.41 |
| CNCCC(Oc1ccc(C(F)(F)F)cc1)c1ccccc1 (stereo not shown) [fluoxetine] | 3.93 |
| CN1CCN(CCCN2c3ccccc3Sc3ccc(C(F)(F)F)cc32)CC1 [trifluoperazine] | 4.62 |
| CC[C@]1(O)C[C@H]2CN(CCc3c([nH]c4ccccc34)[C@@](C(=O)OC)(c3cc4c(cc3OC)N(C=O)[C@H]3[C@@](O)(C(=O)OC)[C@H](OC(C)=O)[C@]5(CC)C=CCN6CC[C@]43[C@@H]65)C2)C1 [vincristine] | 5.75 |
| CCCCC1=NC2(CCCC2)C(=O)N1Cc1ccc(-c2ccccc2-c2nnn[nH]2)cc1 [irbesartan] | 5.25 |
| CNC1(c2ccccc2Cl)CCCCC1=O (stereo not shown) [ketamine] | 3.01 |
| CCc1cc2c(cc1CC)CC(NC[C@H](O)c1ccc(O)c3[nH]c(=O)ccc13)C2 [indacaterol] | 3.88 |
| O=C1CN=C(c2ccccc2)c2cc(Cl)ccc2N1CC1CC1 [prazepam] | 3.70 |
| CCN(CC)CCNc1ccc(CO)c2sc3ccccc3c(=O)c12 [hycanthone] | 3.81 |
| CC(C)C(=O)Oc1ccc(CO)cc1[C@H](CCN(C(C)C)C(C)C)c1ccccc1 [fesoterodine] | 5.08 |
| Cc1ccccc1N1C(=O)c2cc(S(N)(=O)=O)c(Cl)cc2NC1C (stereo not shown) [metolazone] | 3.16 |
| CCCCc1cc2ccccc2c(OCCN(C)C)n1 [dimethisoquin] | 4.04 |

| Molecule | log P |
| --- | --- |
| CC(C(=O)O)c1cccc(Oc2ccccc2)c1 (stereo not shown) [fenoprofen] | 3.72 |
| CCN(CC)CCOC(=O)C1(C2CCCCC2)CCCCC1 [dicyclomine] | 4.64 |
| c1ccc(C2(N3CCCCC3)CCCCC2)cc1 [phencyclidine] | 4.25 |
| CCCCN(CCCC)CCCOC(=O)c1ccc(N)cc1 [butacaine] | 4.62 |
| CC(C(=O)O)c1ccc(-c2ccccc2)c(F)c1 (stereo not shown) [flurbiprofen] | 3.66 |
| iodoquinol | 4.10 |
| C=C[C@H]1C[N@@]2CC[C@H]1C[C@@H]2[C@@H](O)c1ccnc2ccccc12 [cinchonine] | 3.69 |
| CCOC(=O)[C@H](CCc1ccccc1)N[C@@H](C)C(=O)N1CCC[C@H]1C(=O)O [enalapril] | 3.25 |
| CC(CNC1CCCCC1)OC(=O)c1ccccc1 (stereo not shown) [hexylcaine] | 3.65 |
| CN1CCN(CCCN2c3ccccc3Sc3ccc(Cl)cc32)CC1 [prochlorperazine] | 4.65 |
| CC(C)(C)NC[C@H](O)COc1ccccc1C1CCCC1 [penbutolol] | 4.02 |
| O=C(CCCN1CCC(O)(c2ccc(Cl)cc2)CC1)c1ccc(F)cc1 [haloperidol] | 3.76 |
| COc1ccc(Cl)cc1C(=O)NCCc1ccc(S(=O)(=O)NC(=O)NC2CCCCC2)cc1 [glibenclamide] | 3.08 |
| CNCCC=C1c2ccccc2CCc2ccccc21 [nortriptyline] | 3.97 |
| COc1ccc(-c2nc(C(F)(F)F)[nH]c2-c2ccc(OC)cc2)cc1 [flumizole] | 4.26 |
| Oc1ccc2c(c1)[C@@]13CCCC[C@@]1(O)[C@@H](C2)N(CC1CCC1)CC3 [butorphanol] | 3.54 |
| OCCN1CCN(CC/C=C2/c3ccccc3Sc3ccc(C(F)(F)F)cc32)CC1 [flupenthixol] | 3.67 |
| CN(C)CCN1C(=O)c2ccccc2N(C)c2ccccc21 [dibenzepin] | 3.26 |

Conditions: oral

| Molecule | absolute bioavailability |
| --- | --- |
| CC(C)NCC(O)COc1cccc2ccccc12 (stereo not shown) [propranolol] | 26% |
| CC[C@H]1OC(=O)[C@H](C)[C@@H](O[C@H]2C[C@@](C)(OC)[C@@H](O)[C@H](C)O2)[C@H](C)[C@@H](O[C@@H]2O[C@H](C)C[C@H](N(C)C)[C@H]2O)[C@](C)(O)C[C@@H](C)CN(C)[C@H](C)[C@@H](O)[C@]1(C)O [azithromycin] | 40% |
| COc1ccc([C@@H]2Sc3ccccc3N(CCN(C)C)C(=O)[C@@H]2OC(C)=O)cc1 [diltiazem] | 40% |
| C[C@@H]1[C@H](O)[C@@H](C)/C=C/C=C/C=C/C=C/C=C/C=C/C=C/[C@H](O[C@@H]2O[C@H](C)[C@@H](O)[C@H](N)[C@@H]2O)C[C@@H]2O[C@](O)(C[C@@H](O)C[C@@H](O)[C@H](O)CC[C@@H](O)C[C@@H](O)CC(=O)O[C@H]1C)C[C@H](O)[C@H]2C(=O)O [amphotericin B] | very low |
| CCCCC(=O)N(Cc1ccc(-c2ccccc2-c2nnn[nH]2)cc1)[C@H](C(=O)O)C(C)C [valsartan] | 25% |
| CCOC(=O)[C@H](CCc1ccccc1)N[C@@H](C)C(=O)N1CCC[C@H]1C(=O)O [enalapril] | 60% |
| CCOc1nc2cccc(C(=O)O)c2n1Cc1ccc(-c2ccccc2-c2nnn[nH]2)cc1 [candesartan] | 40% |
| CC1(C)S[C@@H]2[C@H](NC(=O)COc3ccccc3)C(=O)N2[C@H]1C(=O)O [phenoxymethylpenicillin] | 50% |
